Where no end group is shown, it is not given here.
Experiments:
[1] = system: NIH:OVCAR5 cells; test: Wound healing (cell migration) assay after mitomycin C treatment; assay type: cell-based, human; conditions: 25 μg/ml mitomycin C for 3 h
Method: Cells were diluted to a concentration of 700,000-10^6 cells/ml in complete media, and 70 μl was plated into each chamber (0.22 cm^2 growth area) of an ibidi® wound-healing culture-insert (ibidi® Verona, WI) in triplicate in a 100 × 20 mm dish (Corning, Falcon, Corning NY). Cells were grown overnight at 37°C in a humidified incubator with 5% CO2 or until the chambers were confluent, prior to removal of the culture insert. Migrating cells were incubated in OptiMEM® containing 10 μM lysophosphatidic acid (LPA Cayman Chemical, Ann Arbor, MI) and photographed initially (t = 0 h), and then up to 48 h with a 4X objective. Image analysis was performed using ImageJ software with the Scratch Assay Analyzer from the MiToBo plug in. Three independent experiments were performed on each cell line.
(§1) Mitomycin C (Sigma-Aldrich, M287) was reconstituted at 0.4 mg/ml in PBS, pH 7.4, according to the supplier's instructions. Prior to spheroid assays, adherent NIH:OVCAR5 cells were pretreated for 3 hours at 37°C, in a tissue culture flask 10 μg/ml mitomycin C diluted in complete RPMI media. Flasks were rinsed with PBS and cells were detached as described for the spheroid assay. For migration assays, cells were plated in ibidi® wound-healing culture-insert incubated overnight, then the media was removed from the culture inserts and replaced with 25 μg/ml mitomycin C in complete RPMI. After 3 hours at 37°C, the culture inserts were removed and the cells were washed with PBS and cell migration was measured as described above.

[2] = system: NIH:OVCAR5 cells; test: Spheroid formation after mitomycin C treatment; assay type: cell-based, human; conditions: 10 μg/ml mitomycin C for 3 h, spheroids after 24 h
Method: Spheroids were formed from the cell lines described above using the liquid overlay method. One milliliter of a single cell suspension was seeded at a concentration of 50,000 cells/ml in complete media, into 24-well tissue culture plates coated with 0.5% Seakem agarose (in complete media). Plates were incubated at 37°C in a humidified incubator with 5% CO2. At various time points up to 5 days, the plates were removed from the incubator and the spheroids were photographed with a Nikon CoolPix digital camera mounted on an Olympus CK2 inverted microscope with a 4X objective. The size of the spheroids was determined using the measure tool in Adobe Photoshop. The largest spheroids were quantified (20-90 spheroids/well) in a minimum of 8 wells, for a total of >300 spheroids per cell type.
as §1

[3] = system: NIH:OVCAR5-N4-over cells adhering to recombinant human Nectin-1 extracellular domain; conditions: 1 h
[4] = system: NIH:OVCAR5-N4-over cells adhering to recombinant human Nectin-1 extracellular domain; test: Peptide screen in the cell adhesion assay at 150 μg/ml; assay type: cell-based; conditions: peptide 0.15 mg/ml; 0.5 μg/well Nectin-1 (R&D Systems); relative to DMSO control; Figure 4A
Method: Black, clear-bottom 96-well microtiter plates (Corning, Imported Costar, Corning, NY) were coated with various concentrations of recombinant human Nectin-1 extracellular domain (R&D Systems or Acrobiosystems, Newark, DE), recombinant human Nectin-4 extracellular domain (R&D Systems), or bovine serum albumin (BSA; Probumin Diagnostic Grade, MilliPore) diluted in PBS. Covered plates were incubated overnight at 37°C in a humidified incubator. After washing with PBS plus Ca^2+/Mg^2+ containing 2 mg/ml ovalbumin (Sigma-Aldrich), the plates were blocked for 1 h at 37°C with 1% BSA in PBS without Ca^2+/Mg^2+. Confluent monolayers of NIH:OVCAR5 cells or NIH:OVCAR5-N4-over cells were detached with Accutase, and then filtered through a 40 μm cell strainer (BD Biosciences, San Jose, CA) to remove cell aggregates. The single cells were stained with CellTracker Green CMFDA (5-chloromethylfluorescein diacetate; Invitrogen™) according to the manufacturer's protocol. After washing the plate, 30,000 cells were added to each well in 50 μl of RPMI 1640 media containing 2 mg/ml ovalbumin and allowed to adhere for 15-60 min at 37°C. Plates were vigorously washed four times and read in a BioTek Synergy fluorescent microplate reader (BioTek, Winooski, VA). Experiments were conducted in triplicate.
Microtiter plates coated with 0.5 μg/well recombinant human Nectin-1 extracellular domain (R&D Systems) as described above were pre-incubated for 30 min at room temperature with 150 μg/ml Nectin-4 peptides in PBS in triplicate. CMFDA-stained NIH:OVCAR5-N4-over cells were then added to the wells and cell adhesion was quantified after a 30 min incubation as described above. In parallel studies, CMFDA-stained NIH:OVCAR5-N4-over cells were pre-incubated for 30 min at room temperature with 150 μg/ml Nectin-1 peptides in PBS in triplicate, and then the cells and peptides were added to the 96-well plate followed by a 30 min incubation. […] Dose curves were conducted as described above, except the microtiter plates were coated with 0.25 μg/well recombinant human Nectin-1 extracellular domain (Acrobiosystems), and the peptides and scrambled controls were diluted from 0.01-200 μg/ml.

| Molecule | IC50 (mg/ml), inhibition of binding of OVCAR5-N4-over cells to recombinant Nectin-1 [3] | Promotion of cell adhesion [4] | other results |
| --- | --- | --- | --- |
| CO[C@@]12[C@H](COC(N)=O)C3=C(C(=O)C(C)=C(N)C3=O)N1C[C@@H]1N[C@@H]12 [mitomycin C] | – | – | Effect on migration in wound healing assay ([1]; NIH:OVCAR5 cells that over-express Nectin-4, 24 h): almost completely inhibited migration; Exposed wound area covered by migrating cells in 24 h ([1]; NIH:OVCAR5 control cells, untreated cells completely closed the wound): 50%; Migration (wound area covered) in 24 h ([1]; Nectin-4 knock-down cells N4-KD-VB3, untreated cells 25%): 16%; Spheroid size with vs without treatment ([2]; NIH:OVCAR5-N4-KD cells): essentially unchanged; Spheroid size with vs without treatment ([2]; NIH:OVCAR5-N4-over cells): essentially unchanged; Spheroid size with vs without treatment ([2]; NIH:OVCAR5 control cells): somewhat smaller |
| ACIVNYHMDRFKES-NH2 [N1-P17] | 0.006 mg/mL | – | – |
| CLSEGQPPPSYNWT [N4-P21, Synthetic peptide from Nectin-4 extracellular domain, IgC2] | – | ~1.5 fold | – |
| LWHIGREGAMLKCL [N4-P20, Synthetic peptide from Nectin-4 extracellular domain, IgC2] | – | ~1.5 fold | – |
| NWYLQRMDVKLTCK-NH2 [N1-P20] | 0.018 mg/mL | – | – |
| QRITHILHVSFLAE-NH2 [N4-P18] | 0.041 mg/mL | – | – |
| RVDGDTLGFPPLTT [N4-P23, Synthetic peptide from Nectin-4 extracellular domain, IgC2] | – | ~1.5 fold | – |
| TTEHSGIYVCHVSN [N4-P24, Synthetic peptide from Nectin-4 extracellular domain, IgC2] | – | ~1.5 fold | – |
| WTRLDGPLPSGVRV-NH2 [N4-P22] | 0.028 mg/mL | – | – |

Source: paper PMC5354766, “The expression of Nectin-4 on the surface of ovarian cancer cells alters their ability to adhere, migrate, aggregate, and proliferate” (Oncotarget, 2016)
